Assays:
BK channels [1] = biological target: T1, BK channels (Oryctolagus cuniculus, UniProt Q9BG98); assay: Perforated patch whole cell patch clamp, outward BK current in isolated smooth muscle cells; type: cell-based, rabbit; details: 10 μM; steps from −80 mV to +50 mV; holding −60 mV
T1 construct: wherein the native BK channels were more sensitive to Ca^2+; from tissue
Description: The cell membrane was perforated using the antibiotic amphotericin B (600 μg·ml^−1).
Standard Hank's solution is used to bathe the cells in these experiments. Isolated smooth muscle cells from rabbit urethra we held at −60 mV. The test protocol involved stepping from −60 mV to −80 mV for 500 msecs, and then stepping the voltage up in +10 mV increments to +50 mV before returning to the holding potential of −60 mV.

BK channels [2] = biological target: T1, BK channels; assay: Single channel recordings, inside-out patch clamp, voltage ramps, isolated smooth muscle cells of the rabbit bladder; type: cell-based; details: for effect on BK channel activity, in words (SAR discussion based on V1/2 data): inside out patches on rabbit smooth muscle cells
Description: All experiments were approved by the Dundalk Institute of Technology Animal Care and Use Committee. […] The urinary bladder and most proximal 1.5 cm of the urethra was removed and placed in Krebs solution. Strips of bladder tissue, 0.5 cm in width were dissected, cut into 1 mm^3 pieces and stored in Ca^2+-free Hanks' solution for 30 min prior to cell dispersal. Tissue pieces were incubated in dispersal medium containing (per 5 ml) of Ca^2+-free Hanks' solution: 15 mg collagenase (Sigma type 1A), 1 mg protease (Sigma type XXIV), 10 mg bovine serum albumin (Sigma) and 10 mg trypsin inhibitor (Sigma) for 10-15 min at 37° C. Tissue was then transferred to Ca^2+-free Hanks' solution and stirred for a further 10-15 min to release single smooth muscle cells. These were plated in Petri dishes containing 100 μM Ca^2+ Hanks' solution and stored at 4° C. for use within 8 h. During experiments, the dish containing the cells was continuously perfused with Hanks' solution at 36±1° C. Additionally the cell under study was continuously superfused by means of a custom built close delivery system with a pipette of tip diameter 200 μm placed approximately 300 μm from the cell. The high K^+ solution in the close delivery system could be switched to a drug-containing solution with a dead space time of less than 5 s.
For whole cell recordings pipettes were pulled from borosilicate glass capillary tubing (1.5 mm outer diameter, 1.17 mm inner diameter; Clark Medical Instruments) to a tip of diameter approximately 1-1.5 μm and resistance of 2-4 Mohms. For single channel recordings, pipettes were pulled from borosilicate glass capillary tubing (1.5 mm outer diameter, 0.8 mm inner diameter; Clark Medical Instruments) and fire polished before use. Voltage clamp commands were delivered via an Axopatch 1D or Axon 200B patch clamp amplifiers (Axon Instruments) and membrane currents were recorded by a 12 bit AD/DA converter (Axodata 1200 or Labmaster, Scientific Solutions) interfaced to an Intel computer running pCLAMP software.
All values in (mM): KCl, 140. Glucose, 10, EGTA 1 and HEPES, 10. For free Ca^2+ greater than 300 nM: All values in (mM): KCl, 140. Glucose, 10, H-EDTA 1 and HEPES, 10. The same solution composition is used in the bath as in the patch pipette for these experiments except that the pipette solution contained 100 nM Ca^2+.
In single channel experiments voltage commands were applied using pClamp ramped potentials. This allowed more efficient measurement of slope conductance and channel activation than conventional step depolarisations. Activation curves were calculated by averaging current responses to 15 potential ramps and dividing each data point of the averaged current by the single channel amplitude at that holding potential, after leakage current correction. […] This analysis provides a continuous recording of the number of open channels multiplied by the open probability (NPo) over the entire voltage range. To obtain values for the steepness of the voltage-dependent activation and half-maximal activation voltage, activation curves were fitted with Boltzman functions of the form: NPo=n/{1+exp[−K(V−V1/2)]} where N is the number of channels in the patch, n is the maximal NPo level, K^−1 is the steepness of the voltage-dependent activation (change in potential necessary to cause an e-fold increase in activation) and V1/2 is the voltage at which there is half-maximal activation. Again, all of the experiments were carried out at 36±1° C.
The patches were held at a potential of −100 mV and voltage ramps were then applied from −100 mV up to +100 mV over 2 s.
Patches were held at −100 mV and ramped through to +100 mV and each sweep was repeated 15 times. The same protocol was repeated after the patch was incubated in 1 μM Ca^2+.

L-type calcium channel = assay: Inward L-type calcium current, perforated patch clamp with Cs+ pipette solution, isolated smooth muscle cells of the rabbit bladder; type: cell-based; details: held at −60 mV, stepped to 0 mV for 500 ms
Excerpt: Using methods described above herein, the patch pipette solution was altered to allow for measurement of inward L-type calcium currents which although present in earlier studies are not visible due to the overwhelming size of the outward BK current. By replacing K^+ with Cs^+ ions, the outward current is now blocked and a prominent inward current carried by Calcium is present. This is the L-type calcium ion channel currents allowing calcium into the cells.
All values in (mM): CsCl, 132.96. MgCl2.6H20, 1. EGTA, 0.5 and HEPES, 10.
With reference to FIG. 5, isolated smooth muscle cells from the rabbit bladder were held at −60 mV and stepped to 0 mV for 500 ms. Pipette solutions contained Cs^+ to block outward K^+ currents.

BK channel = BK channel (Homo sapiens, UniProt Q12791); details: applied to the inside of the membrane; cited from earlier work
[3] = Table 2, 10 μM compound, inside-out patch

T1 sequence (Q9BG98 whole entry): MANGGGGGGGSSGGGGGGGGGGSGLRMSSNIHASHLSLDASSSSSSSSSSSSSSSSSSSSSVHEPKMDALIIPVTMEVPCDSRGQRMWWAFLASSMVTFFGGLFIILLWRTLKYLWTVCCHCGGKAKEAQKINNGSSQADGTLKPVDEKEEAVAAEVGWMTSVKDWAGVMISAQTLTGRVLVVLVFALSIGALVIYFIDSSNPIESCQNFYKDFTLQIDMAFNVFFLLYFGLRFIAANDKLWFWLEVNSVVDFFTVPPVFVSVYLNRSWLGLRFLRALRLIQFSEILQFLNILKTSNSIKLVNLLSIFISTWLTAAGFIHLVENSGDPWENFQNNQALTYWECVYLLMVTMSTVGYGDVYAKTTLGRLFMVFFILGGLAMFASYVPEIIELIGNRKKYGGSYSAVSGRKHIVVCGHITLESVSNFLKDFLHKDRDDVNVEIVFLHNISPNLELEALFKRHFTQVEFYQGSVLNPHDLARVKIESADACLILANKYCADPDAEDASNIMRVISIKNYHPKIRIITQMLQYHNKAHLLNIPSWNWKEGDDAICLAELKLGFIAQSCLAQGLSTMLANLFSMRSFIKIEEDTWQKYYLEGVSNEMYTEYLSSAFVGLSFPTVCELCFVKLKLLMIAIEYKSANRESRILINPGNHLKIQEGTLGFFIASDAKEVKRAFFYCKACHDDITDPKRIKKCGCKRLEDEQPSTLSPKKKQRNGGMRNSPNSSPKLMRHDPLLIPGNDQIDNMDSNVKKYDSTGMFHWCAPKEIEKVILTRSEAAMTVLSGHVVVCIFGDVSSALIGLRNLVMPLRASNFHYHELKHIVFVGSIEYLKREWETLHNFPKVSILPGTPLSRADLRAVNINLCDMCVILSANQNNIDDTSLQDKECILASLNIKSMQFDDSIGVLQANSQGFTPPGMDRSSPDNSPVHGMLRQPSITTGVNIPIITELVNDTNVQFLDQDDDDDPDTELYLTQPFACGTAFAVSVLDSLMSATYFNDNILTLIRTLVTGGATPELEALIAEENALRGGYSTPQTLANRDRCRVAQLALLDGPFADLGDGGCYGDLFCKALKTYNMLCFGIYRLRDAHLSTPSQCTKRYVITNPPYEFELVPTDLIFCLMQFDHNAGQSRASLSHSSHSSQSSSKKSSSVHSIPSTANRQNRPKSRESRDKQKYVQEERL
Chain of BK channel (Q12791 whole entry, species assumed): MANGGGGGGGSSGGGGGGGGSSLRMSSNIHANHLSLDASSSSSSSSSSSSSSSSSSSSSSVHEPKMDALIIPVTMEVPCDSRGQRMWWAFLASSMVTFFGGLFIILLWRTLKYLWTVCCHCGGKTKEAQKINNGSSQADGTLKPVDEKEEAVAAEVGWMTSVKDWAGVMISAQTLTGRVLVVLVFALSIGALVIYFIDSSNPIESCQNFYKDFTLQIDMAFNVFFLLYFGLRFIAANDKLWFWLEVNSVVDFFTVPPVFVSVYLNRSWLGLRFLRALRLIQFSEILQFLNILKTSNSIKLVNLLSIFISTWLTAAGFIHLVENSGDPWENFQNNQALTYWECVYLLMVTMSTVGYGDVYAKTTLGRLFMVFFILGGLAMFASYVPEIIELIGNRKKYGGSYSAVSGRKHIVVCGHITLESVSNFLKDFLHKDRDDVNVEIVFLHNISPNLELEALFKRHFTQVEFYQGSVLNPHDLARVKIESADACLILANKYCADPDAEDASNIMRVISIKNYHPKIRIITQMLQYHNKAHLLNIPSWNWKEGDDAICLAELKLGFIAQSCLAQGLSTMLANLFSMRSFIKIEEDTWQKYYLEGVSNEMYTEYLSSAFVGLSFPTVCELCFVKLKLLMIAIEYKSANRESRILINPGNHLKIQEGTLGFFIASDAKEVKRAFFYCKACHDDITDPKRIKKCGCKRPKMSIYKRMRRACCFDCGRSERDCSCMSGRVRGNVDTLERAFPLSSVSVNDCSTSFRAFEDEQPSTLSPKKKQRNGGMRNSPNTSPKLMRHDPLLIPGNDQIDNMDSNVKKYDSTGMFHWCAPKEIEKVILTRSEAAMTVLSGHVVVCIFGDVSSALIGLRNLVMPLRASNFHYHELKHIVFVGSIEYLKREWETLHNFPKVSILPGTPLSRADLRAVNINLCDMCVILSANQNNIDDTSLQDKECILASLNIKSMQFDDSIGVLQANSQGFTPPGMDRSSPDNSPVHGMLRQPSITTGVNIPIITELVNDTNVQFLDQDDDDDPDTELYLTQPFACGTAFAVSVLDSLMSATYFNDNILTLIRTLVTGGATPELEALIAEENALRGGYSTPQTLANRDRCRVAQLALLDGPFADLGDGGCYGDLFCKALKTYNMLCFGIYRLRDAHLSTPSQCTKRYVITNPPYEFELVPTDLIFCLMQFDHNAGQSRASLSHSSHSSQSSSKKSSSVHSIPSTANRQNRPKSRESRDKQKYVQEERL
Chain of BK channel (Q16558 whole entry partner, species assumed): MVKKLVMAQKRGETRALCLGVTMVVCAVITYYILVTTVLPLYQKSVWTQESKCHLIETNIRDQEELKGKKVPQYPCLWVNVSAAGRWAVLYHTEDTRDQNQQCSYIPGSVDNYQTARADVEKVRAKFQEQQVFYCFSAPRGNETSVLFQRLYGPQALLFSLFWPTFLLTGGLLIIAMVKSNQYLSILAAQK

| Compound | effect on BK channel activity, in words (SAR discussion based on V1/2 data) (BK channels [2]) | ΔV1/2 (mV) in 100 nm Ca^2+ (BK channels [2]; [3]) [mV] | also measured |
| --- | --- | --- | --- |
| Nc1c(S(=O)(=O)[O-])cc(Nc2ccccc2)c2c1C(=O)c1ccccc1C2=O.[Na+] [Acid Blue 25, Sodium 1-Amino-9,10-Dioxo-4-(Phenylamino)-9,10-Dihydroanthracene-2-Sulfonate] | – | – | amplitude of the outward BK current compared to control (BK channels [1]): enhances the amplitude of the BK current; ΔV1/2 (mV) in 100 nm Ca^2+ (BK channels [2]; Table 1, 10 μM compound, inside-out patch, V1/2 control vs drug): −51.0 mV; shifted the V1/2 by (BK channels [2]; inside out patches, concentration not given): −56 mV |
| Nc1c(S(=O)(=O)[O-])cc(Nc2cccc(C(F)(F)F)c2)c2c1C(=O)c1ccccc1C2=O.[Na+] [SR-5-6, sodium 1-amino-9,10-dioxo-4-(3-(trifluoromethyl)phenylamino)-9,10-dihydroanthracene-2-sulfonate] | – | – | inward L-type calcium current amplitude (L-type calcium channel): reduced in amplitude |
| Nc1c(S(=O)(=O)[O-])cc(Nc2ccc3c(c2)CCCC3)c2c1C(=O)c1ccccc1C2=O.[Na+] [SR-5-69, sodium 1-amino-9,10-dioxo-4-((5,6,7,8-tetrahydronaphthalen-2-yl)amino)-9,10-dihydroanthracene-2-sulfonate] | dramatic increase in the activity | – | shift in the activation V1/2 (BK channels [2]; 30 nM, example patch of FIG. 8A): very small shift; shifted the V1/2 by (BK channels [2]; 1 μM): 110 mV; V1/2 reached in the presence of the drug (BK channels [2]; 1 μM, example patch of FIG. 8A): approximately +5 mV; shift of the V1/2 (BK channels [2]; 1 μM, example patch of FIG. 8A, hyperpolarising direction): > −100 mV; ΔV1/2 (mV) in 100 nm Ca^2+ (BK channels [2]; Table 2, 1 μM compound, inside-out patch): −101.6 mV; dose dependence of effects on open probability and ΔV1/2 for BK channels (BK channels [2]; increasing concentrations, inside-out patch): dose-dependent; EC50 (BK channels [2]; n=4-6 patches containing BK channels, read-out: mean EC50 (Langmuir fit of mean V1/2 against concentration)): 95 nM |
| Nc1c(S(=O)(=O)[O-])cc(Nc2ccc3ccccc3c2)c2c1C(=O)c1ccccc1C2=O.[Na+] [SR-5-72, sodium 1-amino-4-((naphthalen-2-yl)amino)-9,10-dioxo-9,10-dihydroanthracene-2-sulfonate] | dramatic increase in the activity | −103.8 | shifted the V1/2 by (BK channels [2]; 1 μM): 93 mV |
| CC(C)(C)c1cccc(Nc2cc(S(=O)(=O)[O-])c(N)c3c2C(=O)c2ccccc2C3=O)c1.[Na+] [SR-5-76, sodium 1-amino-4-((3-(tert-butyl)phenyl)amino)-9,10-dioxo-9,10-dihydroanthracene-2-sulfonate] | BK channel agonists | −94.9 | – |
| Nc1c(C(=O)O)cc(Nc2cccc(C(F)(F)F)c2)c2c1C(=O)c1ccccc1C2=O [SR-5-88, 1-amino-9,10-dioxo-4-((3-(trifluoromethyl)phenyl)amino)-9,10-dihydroanthracene-2-carboxylic acid] | activity was not altered | −98.8 | – |
| Nc1c(S(=O)(=O)[O-])cc(Nc2cccc(-c3ccccc3)c2)c2c1C(=O)c1ccccc1C2=O.[Na+] [SR-5-94, sodium 4-([1,1′-biphenyl]-3-ylamino)-1-amino-9,10-dioxo-9,10-dihydroanthracene-2-sulfonate] | – | −60.0 | – |
| CCc1ccccc1Nc1cc(S(=O)(=O)[O-])c(N)c2c1C(=O)c1ccccc1C2=O.[Na+] [SR-5-96, sodium 1-amino-4-((2-ethylphenyl)amino)-9,10-dioxo-9,10-dihydroanthracene-2-sulfonate] | BK channel agonists | −84.8 | – |
| CCc1ccc(Nc2cc(S(=O)(=O)[O-])c(N)c3c2C(=O)c2ccccc2C3=O)cc1.[Na+] [SR-5-97, sodium 1-amino-4-((4-ethylphenyl)amino)-9,10-dioxo-9,10-dihydroanthracene-2-sulfonate] | BK channel openers | −78.5 | – |
| CC(C)c1ccccc1Nc1cc(S(=O)(=O)[O-])c(N)c2c1C(=O)c1ccccc1C2=O.[Na+] [SR-5-98, sodium 1-amino-4((2-isopropylphenyl)amino)-9,10-dioxo-9,10-dihydroanthracene-2-sulfonate] | BK channel agonists | −120.0 | – |
| CC(C)c1ccc(Nc2cc(S(=O)(=O)[O-])c(N)c3c2C(=O)c2ccccc2C3=O)cc1.[Na+] [SR-5-99, sodium 1-amino-4-((4-isopropylphenyl)amino)-9,10-dioxo-9,10-dihydroanthracene-2-sulfonate] | BK channel openers | −83.4 | – |
| Basilen blue | – | – | BK channel activation, in words (BK channel): moderately potent BK channel activator |

From patent US9877940B2, “Anthraquinone compounds and their uses” (DUNDALK INSTITUTE OF TECHNOLOGY, priority 2010, dated 2018)
